From patent US8481005B2, “Methods to prevent cytotoxicity using N-acetyl-cysteine” (priority 2006, dated 2013) come the findings set out here.

For series [1], the system named is HEp2 cells co-cultured with PBMCs. The series is described as follows: VEGF in co-cultures of HEMA/NAC treated HEp2 cells with PBMCs (multiplex cytokine array). Also noted: unit not given here. It counts as cell-based, human. The method, then:
Treatment with NAC inhibits HEMA-mediated cell death and cytotoxicity. Thus, its ability to protect the function of cells in the presence of HEMA was also evaluated further. […] The cells were trypsinized and washed 4 times with 1×PBS before they were co-cultured with PBMCs obtained from a healthy individual. A 4:1 ratio of effector to target cells (PBMC:HEp2) were used in these cultures. PBMCs were treated with and without IL-2 before they were co-cultured with HEp-2 cells. The supernatants were then removed from the co-cultures after an overnight incubation and analyzed using the FAST QUANT multiplex cytokine array kit to determine the levels of secreted cytokines.

For series [2], the system named is human dental pulp stromal cells. The series is described as follows: VEGF by ELISA, human dental pulp stromal cells, NAC versus vitamin E (Table 5). It counts as cell-based. To be noted: 4 hours. The method, then:
Following the 4 hour incubation, cells were analyzed for apoptosis using FTIC-Annexin V and PI.
Dental pulp stromal cells were then treated as described in the preceding paragraph with supernatants removed and assayed for VEGF levels by ELISA following the 4 hour incubation.

For another series, the system named is RAW 264.7 cells. The method, then:
(§1) RAW 264.7 cells (murine macrophages) were obtained from American Type Culture Collection (ATCC) and were cultured in a 5% CO2 atmosphere in DMEM (purchased from Cellgro (Herndon, Va.)) containing 10% FCS, 1% penicillin-streptomycin, 1% sodium pyruvate, 1% non essential amino acids and 1% glutamine. THP-1 cells (human macrophages) were obtained from ATCC and were cultured under the same conditions, with RMPI 1640 containing 10% FCS, 1% penicillin-streptomycin, 1% sodium pyruvate and 1% non essential amino acids.
(§2) Dose-dependent apoptosis was measured by FITC-Annexin V/Propidium iodide kits (Miami, Fla.). Cells were plated in six-well/twelve well plates. […] Cells were washed twice with PBS and centrifuged at about 2000 rpm for about 5 minutes and resuspended in binding buffer (provided in the kit) along with FITC-Annexin V/Propidium iodide (PI) according to manufacturer's instructions. After incubating on ice (light protected) for about 15 minutes, samples were analyzed by flow cytometry. Flow cytometric analysis was performed using a flow cytometer equipped with a single 488-nm argon laser. Dead cell fragments were gated out by forward and side scatter analysis. […] Forward and side scatter were used to gate out cellular fragments.
(§3) After an overnight incubation, the levels of cell death were determined using PI staining of ethanol fixed cells. Specifically, cells were washed twice with PBS before they were treated with 70% ethanol (250 μl). Ethanol was added dropwise and then the cells were incubated on ice for 30 minutes. The cells were then washed twice with PBS and resuspended in 1 ml PBS to which PI at a final concentration of 1 mg/ml was added. The samples were then analyzed using the flow cytometer.
(§4) In FIGS. 2A and 2B, the numbers in each histogram represent the percentage of Sub Go/G1 fragmented cell populations. Ten thousand events were analyzed for each sample.

In the next series the test system is THP-1 cells. Here is the method: as §1, §2, §3, §4
In series [3] the test system is peripheral blood mononuclear cells. The series is described as follows: PI/Annexin V apoptosis in peripheral blood mononuclear cells. The format is cell-based, human. To be noted: PBMCs, overnight. Here is the method: PBMCs were isolated and obtained after Ficoll-hypaque centrifugation as described in Jewett et al., 159, J. Immunol. (1997) which is hereby incorporated by reference. Specifically, human peripheral blood was obtained from normal donors in the laboratory as per guidelines of the UCLA Human Subject Protection Committee. The blood was fractionated on Ficoll-Hypaque, and the buffy layer was harvested, washed and resuspended in media.
Peripheral blood mononuclear cells were then cultured in RPMI 1640 supplemented with 10% FCS, 1% penicillin-streptomycin, 1% sodium pyruvate and 1% non-essential amino acids.
Cells were simultaneously treated in the presence and absence of NAC overnight. […] It is quite well known that apoptotic cells initially lose their size and gain in granularity when they undergo cell death. These changes are one hallmark of apoptosis.

A further series has as its system PBMCs. The series is described as follows: PBMCs treated with HEMA or CDDP, FITC-Annexin V and PI. The format is cell-based. The conditions noted are these: about 18 hours, highest concentration of CDDP, HEMA 0.0164M-0.00164M. The source says:
The cells were then stained with FITC-Annexin V and PI according to the manufacturer's protocol.

The next series concerns active caspase 3. The series is described as follows: Active caspase 3 staining in PBMCs treated with HEMA or CDDP. It counts as cell-based. The conditions noted are these: HEMA 0.0164M.
A further series has as its system mesenchymal stem cells. The series is described as follows: Cell death of mesenchymal stem cells (FITC-Annexin V and PI). It counts as cell-based. The source says:
Treated mesenchymal stem cells were then removed and cell death determined using FITC-Annexin V and PI staining.

For series [4], the system named is dental pulp stromal cells. Description: Cell death in rat dental pulp stromal cells in vitro. The format is cell-based, Sprague-Dawley rats. To be noted: 0.0328M and 0.00328M HEMA with NAC 20 mM, about 12-14 hours, versus HEMA alone.
Description: In a first study using dental pulp stromal cells, dental pulp tissue was extracted from the lower central incisors of 8-12 week old male Sprague-Dawley rats. The lower central incisors were carefully extracted without fracture to avoid periodontal tissue influx into the pulp tissue. The periodontal tissue and other soft tissue remnants were removed from the root part of the teeth, and the incisor tip and root parts were then cut to allow the pulp tissue to be washed out. The extracted tissue was then treated with 0.1% collagenase in 0.25% trypsin EDTA at 37° C. for about 15 minutes. The pellet of released cells was then centrifuged at about 2000 rpm for about 4 minutes and resuspended in DMEM supplemented with 10% FBS, 1% sodium pyruvate, 1% non-essential amino acids and 1% antibiotic-antimycotic. The cells were cultured in a 6 well plate and the media was changed every 3 days.
For series [5], the system named is human dental pulp stromal cells. Description: ALP staining of human dental pulp stromal cells. The format is cell-based. The conditions noted are these: after 7 days of incubation; NAC 20 mM. Here is the method: Following the experiment described above in human dental pulp stromal cells, treatments were carried out as described above with the levels of ALP staining representing maturation/differentiation of dental pulp stromal cells. This staining was performed after 7 days of incubation. […] Odontoblasts

For another series, the system named is gingival cells. The series is described as follows: PI/FITC-Annexin V cell survival of rat gingival cells. The format is cell-based. To be noted: 0.0164M-0.00164M HEMA with NAC 20 mM, about 12-14 hours, versus HEMA alone. Here is the method: Rat gingival cells were obtained from 8 week old male rats and cultured in DMEM supplemented with 10% FBS, 1% antibiotic-antimycotic, 1% sodium pyruvate and 1% non-essential amino acids. […] Cell survival was measured by PI/FITC-Annexin V staining as described previously.

For series [6], the system named is teeth and surrounding tissue. The series is described as follows: Rat tooth bleaching with or without NAC: photographs of teeth and tissue. The format is in vivo. The method, then: Rats were divided into the following groups: A: control, unbleached; B: bleached with no NAC; and C: Bleached with NAC. The bleaching agent used in the following studies was Oral B Rembrandt whitening system (containing 33% hydrogen peroxide and carbamide) often used in dental offices (chair side). NAC was initially painted on teeth at a 20 mM concentration for 5 minutes. Next a bleaching agent was applied for 5 hours, after which the teeth were extracted, and pulp was obtained from each group and treated with trypsin/EDTA (0.25%) and collagenase (0.02%). […] Also note that bleaching in the presence of NAC (F) was as effective as bleaching without the NAC (E). […] Note the white tissue in the absence of NAC which represents dead and dying tissue.

[7] abbreviates: 0.0164M HEMA alone (HEMA) or also treated with NAC (NAC).
The mark [8] stands for this setting: NAC 20 mM pretreatment about 8 hours or simultaneous, overnight.

As for `C=C(C)C(=O)OCCO` [HEMA, hydroxyethyl methacrylate], the VEGF in [1] (HEp2 +0.00164M HEMA, −/+NAC, Control PBMC +IL-2) came to 6923; in series [1] (HEp2 +0.00164M HEMA, −/+NAC, Control PBMC −IL-2), 6640; in [1] (HEp2 +0.00164M HEMA, −/+NAC, No PBMC) it was 7139; in series [1] (HEp2 +0.0164M HEMA, −/+NAC, Control PBMC +IL-2), 323; in series [1] (HEp2 +0.0164M HEMA, −/+NAC, Control PBMC −IL-2), 582; in series [1] (HEp2 +0.0164M HEMA, −/+NAC, No PBMC) it was 294. Further, the “VEGF levels by ELISA, Human dental pulp stromal cells” value in series [2] (HEMA 0.00164M, alone or with NAC and/or vitamin E) amounted to 57.26; in [2] (HEMA 0.0082M, alone or with NAC and/or vitamin E) it was 72.6 pg/mL; in series [2] (HEMA 0.0164M, alone or with NAC (20 mM) and/or vitamin E (5 mM)), 73.79. For the same molecule, the “HEMA-mediated cell death and cytotoxicity (FITC-Annexin V/PI)” value in the series with RAW 264.7 cells (HEMA about 18 hours) and with THP-1 cells (HEMA about 18 hours) was “detected at millimole to micromole concentrations” in each case. In addition, the “cells in the stage of late apoptosis (PI/Annexin V)” value is listed as 39% in [3] (0.0082M HEMA alone (HEMA) or also treated with NAC (NAC)) and “about 45%” in series [3] (setting [7]). Besides, the “cells remained both PI and Annexin V negative” value in the series on PBMCs was “less than 50%”. In the series on active caspase 3, the “increase in active caspase 3 staining compared to the CDDP treated cells” value is “about 2 fold”. Moreover, the “active caspase 3 staining” value with active caspase 3 (CDDP) was found to be 42%. Besides, the “cells that underwent cell death” value with mesenchymal stem cells (mesenchymal stem cells, 0.0164M HEMA) was determined as 86.1%.

Turning to `CC(=O)N[C@@H](CS)C(=O)O` [NAC, N-acetyl-cysteine], the VEGF in series [1] (HEp2 −HEMA (+NAC), Control PBMC +IL-2) was found to be 5376; in [1] (HEp2 −HEMA (+NAC), Control PBMC −IL-2), 5260; in series [1] (HEp2 −HEMA (+NAC), No PBMC), 4714. The “VEGF levels by ELISA, Human dental pulp stromal cells” value in series [2] (no HEMA, NAC (20 mM) and/or vitamin E (5 mM)) came out at 1532.4. In addition, the “inhibition of HEMA-mediated cell death (Sub Go/G1, PI staining)” value with RAW 264.7 cells (setting [8]) and in the series on THP-1 cells (setting [8]) was “inhibited HEMA-mediated cell death” each time. The “cells in the stage of late apoptosis (PI/Annexin V)” value in series [3] (setting [7]) was “about 25%”. Also, the “viable cells after HEMA exposure” value (in series [4]; in the series on gingival cells) was “higher number of viable cells” in each case. Besides, the “HEMA-mediated decrease in ALP” value in series [5] is “significantly prevented”. The “efficacy or potency of the bleaching system” value in [6] (NAC 20 mM painted on teeth 5 minutes, then bleaching agent 5 hours) was “does not decrease the efficacy or potency of the bleaching system”. The “white (dead and dying) tissue after bleaching” value in [6] (bleaching agent 5 hours, without or with NAC 20 mM) is recorded as “the amount of white tissue is minimal”. In addition, the “prevention of HEMA-mediated cell death” value in the series with mesenchymal stem cells (NAC 20 mM, 18 hours) was “can prevent HEMA-mediated cell death”.
